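Abbreviation: GI50, concentration required for 50% inhibition of growth. The concentration for full growth arrest is given as TGI.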
Experiments:
Assay in all cases: NCI-60 cell line screen, 384-well format
OVCAR-3 ovarian = tested on: OVCAR-3 ovarian
HCT-116 colon = tested on: HCT-116 colon
IGROV1 ovarian = tested on: IGROV1 ovarian
SF-539 CNS = tested on: SF-539 CNS
RPMI-8226 leukemia = tested on: RPMI-8226 leukemia
A549 NSCLC = tested on: A549 NSCLC
A498 renal = tested on: A498 renal
HL-60(TB) leukemia = tested on: HL-60(TB) leukemia
UO-31 renal = tested on: UO-31 renal
NCI-H226 lung = tested on: NCI-H226 lung
RXF 393 renal = tested on: RXF 393 renal
SW-620 colon = tested on: SW-620 colon
MDA-MB-468 breast = tested on: MDA-MB-468 breast
SNB-19 CNS = tested on: SNB-19 CNS
U251 glioblastoma = tested on: U251 glioblastoma
NCI-H522 lung = tested on: NCI-H522 lung
MCF7 breast = tested on: MCF7 breast
TK-10 renal = tested on: TK-10 renal
OVCAR-8 ovarian = tested on: OVCAR-8 ovarian
HT29 colon = tested on: HT29 colon
DU-145 prostate = tested on: DU-145 prostate
HS 578T breast = tested on: HS 578T breast
SK-OV-3 ovarian = tested on: SK-OV-3 ovarian
786-0 renal = tested on: 786-0 renal
MDA-MB-231 breast = tested on: MDA-MB-231 breast
M14 melanoma = tested on: M14 melanoma
HOP-92 NSCLC = tested on: HOP-92 NSCLC
HCC-2998 colon = tested on: HCC-2998 colon
SK-MEL-28 melanoma = tested on: SK-MEL-28 melanoma
HOP-62 NSCLC = tested on: HOP-62 NSCLC
NCI-H460 NSCLC = tested on: NCI-H460 NSCLC
OVCAR-5 ovarian = tested on: OVCAR-5 ovarian
MDA-MB-435 melanoma = tested on: MDA-MB-435 melanoma
SK-MEL-5 melanoma = tested on: SK-MEL-5 melanoma
NCI/ADR-RES ovarian = tested on: NCI/ADR-RES ovarian
NCI-H322M lung = tested on: NCI-H322M lung
T-47D breast = tested on: T-47D breast
KM12 colon = tested on: KM12 colon
OVCAR-4 ovarian = tested on: OVCAR-4 ovarian
SNB-75 CNS = tested on: SNB-75 CNS
NCI-H23 lung = tested on: NCI-H23 lung
PC-3 prostate = tested on: PC-3 prostate
COLO 205 colon = tested on: COLO 205 colon
SN12C renal = tested on: SN12C renal
UACC-257 melanoma = tested on: UACC-257 melanoma
LOX IMVI melanoma = tested on: LOX IMVI melanoma
SF-295 CNS = tested on: SF-295 CNS
SR leukemia = tested on: SR leukemia
HCT-15 colon = tested on: HCT-15 colon
MALME-3M melanoma = tested on: MALME-3M melanoma
CCRF-CEM leukemia = tested on: CCRF-CEM leukemia
SF-268 CNS = tested on: SF-268 CNS
ACHN renal = tested on: ACHN renal
CAKI-1 renal = tested on: CAKI-1 renal
UACC-62 melanoma = tested on: UACC-62 melanoma
EKVX NSCLC = tested on: EKVX NSCLC
BT-549 breast = tested on: BT-549 breast
MOLT-4 leukemia = tested on: MOLT-4 leukemia

COc1cc(Nc2c(C#N)cnc3cc(OCCCN4CCN(C)CC4)c(OC)cc23)c(Cl)cc1Cl
GI50 (OVCAR-3 ovarian): 1490 nM
TGI (OVCAR-3 ovarian): 5020 nM
GI50 (HCT-116 colon): 1150 nM
TGI (HCT-116 colon): 2570 nM
GI50 (IGROV1 ovarian): 146 nM
TGI (IGROV1 ovarian): 899 nM
GI50 (SF-539 CNS): 1550 nM
TGI (SF-539 CNS): 2990 nM
GI50 (RPMI-8226 leukemia): 898 nM
TGI (RPMI-8226 leukemia): 2350 nM
GI50 (A549 NSCLC): 1600 nM
TGI (A549 NSCLC): 4640 nM
GI50 (A498 renal): 806 nM
TGI (A498 renal): 3610 nM
GI50 (HL-60(TB) leukemia): 1390 nM
TGI (HL-60(TB) leukemia): 2720 nM
GI50 (UO-31 renal): 476 nM
TGI (UO-31 renal): 2560 nM
GI50 (NCI-H226 lung): 2770 nM
TGI (NCI-H226 lung): 6250 nM
GI50 (RXF 393 renal): 368 nM
TGI (RXF 393 renal): 1460 nM
GI50 (SW-620 colon): 2620 nM
TGI (SW-620 colon): 5860 nM
GI50 (MDA-MB-468 breast): 998 nM
TGI (MDA-MB-468 breast): 2660 nM
GI50 (SNB-19 CNS): 3510 nM
TGI (SNB-19 CNS): 9260 nM
GI50 (U251 glioblastoma): 2100 nM
TGI (U251 glioblastoma): 4700 nM
GI50 (NCI-H522 lung): 133 nM
TGI (NCI-H522 lung): 2780 nM
GI50 (MCF7 breast): 2400 nM
TGI (MCF7 breast): 5380 nM
GI50 (TK-10 renal): 584 nM
TGI (TK-10 renal): 3520 nM
GI50 (OVCAR-8 ovarian): 1940 nM
TGI (OVCAR-8 ovarian): 5020 nM
GI50 (HT29 colon): 1430 nM
TGI (HT29 colon): 3590 nM
GI50 (DU-145 prostate): 645 nM
TGI (DU-145 prostate): 2850 nM
GI50 (HS 578T breast): 1290 nM
TGI (HS 578T breast): 4240 nM
GI50 (SK-OV-3 ovarian): 416 nM
TGI (SK-OV-3 ovarian): 4210 nM
GI50 (786-0 renal): 764 nM
TGI (786-0 renal): 2580 nM
GI50 (MDA-MB-231 breast): 1410 nM
TGI (MDA-MB-231 breast): 2760 nM
GI50 (M14 melanoma): 1160 nM
TGI (M14 melanoma): 2490 nM
GI50 (HOP-92 NSCLC): 1100 nM
TGI (HOP-92 NSCLC): 2790 nM
GI50 (HCC-2998 colon): 2200 nM
TGI (HCC-2998 colon): 4350 nM
GI50 (SK-MEL-28 melanoma): 1560 nM
TGI (SK-MEL-28 melanoma): 2980 nM
GI50 (HOP-62 NSCLC): 1690 nM
TGI (HOP-62 NSCLC): 5020 nM
GI50 (NCI-H460 NSCLC): 1620 nM
TGI (NCI-H460 NSCLC): 5140 nM
GI50 (OVCAR-5 ovarian): 1840 nM
TGI (OVCAR-5 ovarian): 6660 nM
GI50 (MDA-MB-435 melanoma): 2120 nM
TGI (MDA-MB-435 melanoma): 5430 nM
GI50 (SK-MEL-5 melanoma): 1240 nM
TGI (SK-MEL-5 melanoma): 2540 nM
GI50 (NCI/ADR-RES ovarian): 2140 nM
TGI (NCI/ADR-RES ovarian): 4660 nM
GI50 (NCI-H322M lung): 423 nM
TGI (NCI-H322M lung): 2360 nM
GI50 (T-47D breast): 1340 nM
TGI (T-47D breast): 5410 nM
GI50 (KM12 colon): 448 nM
TGI (KM12 colon): 4030 nM
GI50 (OVCAR-4 ovarian): 1850 nM
TGI (OVCAR-4 ovarian): 4180 nM
GI50 (SNB-75 CNS): 951 nM
TGI (SNB-75 CNS): 3320 nM
GI50 (NCI-H23 lung): 1690 nM
TGI (NCI-H23 lung): 4260 nM
GI50 (PC-3 prostate): 2580 nM
TGI (PC-3 prostate): 7120 nM
GI50 (COLO 205 colon): 2010 nM
TGI (COLO 205 colon): 5450 nM
GI50 (SN12C renal): 301 nM
TGI (SN12C renal): 4140 nM
GI50 (UACC-257 melanoma): 1610 nM
TGI (UACC-257 melanoma): 2980 nM
GI50 (LOX IMVI melanoma): 637 nM
TGI (LOX IMVI melanoma): 2130 nM
GI50 (SF-295 CNS): 2680 nM
TGI (SF-295 CNS): 5770 nM
GI50 (SR leukemia): 1370 nM
TGI (SR leukemia): 2680 nM
GI50 (HCT-15 colon): 1140 nM
TGI (HCT-15 colon): 3740 nM
GI50 (MALME-3M melanoma): 1040 nM
TGI (MALME-3M melanoma): 2470 nM
GI50 (CCRF-CEM leukemia): 2040 nM
TGI (CCRF-CEM leukemia): 3640 nM
GI50 (SF-268 CNS): 1850 nM
TGI (SF-268 CNS): 5520 nM
GI50 (ACHN renal): 443 nM
TGI (ACHN renal): 4050 nM
GI50 (CAKI-1 renal): 431 nM
TGI (CAKI-1 renal): 2090 nM
GI50 (UACC-62 melanoma): 1440 nM
TGI (UACC-62 melanoma): 2880 nM
GI50 (EKVX NSCLC): 1570 nM
TGI (EKVX NSCLC): 5850 nM
GI50 (BT-549 breast): 1210 nM
TGI (BT-549 breast): 3310 nM
GI50 (MOLT-4 leukemia): 612 nM
TGI (MOLT-4 leukemia): 2000 nM
